From the supplement of paper PMC11451515

System: NOMO1
Assay: cell viability relative to DMSO control; higher = less cytotoxic
Settings: 48 h
In short: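 Viability, reported as a per-plate percentage of DMSO wells with cell-free wells as background, came from CellTiter-Glo One luminescence. Reading took place after 48 h at 37°C. Before that, NOMO1 or SEM (500 cells/well) or P12-Ichikawa (1000 cells/well) leukemia cells, adapted for at least four passages in each medium, were seeded in 1536-well plates (5 μl) and pin-dosed with library compounds in DMSO, 47 μM to 0.79 nM over 11 threefold points.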

[1] = HPLM + 10% dialyzed FBS, 0.000781 µM
[2] = HPLM + 10% dialyzed FBS, 0.00234 µM
[3] = HPLM + 10% dialyzed FBS, 0.00702 µM
[4] = HPLM + 10% dialyzed FBS, 0.0211 µM
[5] = HPLM + 10% dialyzed FBS, 0.0632 µM
[6] = HPLM + 10% dialyzed FBS, 0.19 µM
[7] = HPLM + 10% dialyzed FBS, 0.569 µM
[8] = HPLM + 10% dialyzed FBS, 1.71 µM
[9] = HPLM + 10% dialyzed FBS, 5.12 µM
[10] = HPLM + 10% dialyzed FBS, 15.4 µM
[11] = HPLM + 10% dialyzed FBS, 46.1 µM
[12] = RPMI 5 mM glucose + 10% FBS, 0.000781 µM
[13] = RPMI 5 mM glucose + 10% FBS, 0.00234 µM
[14] = RPMI 5 mM glucose + 10% FBS, 0.00702 µM
[15] = RPMI 5 mM glucose + 10% FBS, 0.0211 µM
[16] = RPMI 5 mM glucose + 10% FBS, 0.0632 µM
[17] = RPMI 5 mM glucose + 10% FBS, 0.19 µM
[18] = RPMI 5 mM glucose + 10% FBS, 0.569 µM
[19] = RPMI 5 mM glucose + 10% FBS, 1.71 µM
[20] = RPMI 5 mM glucose + 10% FBS, 5.12 µM
[21] = RPMI 5 mM glucose + 10% FBS, 15.4 µM
[22] = RPMI 5 mM glucose + 10% FBS, 46.1 µM
[23] = RPMI 5 mM glucose + 10% dialyzed FBS, 0.000781 µM
[24] = RPMI 5 mM glucose + 10% dialyzed FBS, 0.00234 µM
[25] = RPMI 5 mM glucose + 10% dialyzed FBS, 0.00702 µM
[26] = RPMI 5 mM glucose + 10% dialyzed FBS, 0.0211 µM
[27] = RPMI 5 mM glucose + 10% dialyzed FBS, 0.0632 µM
[28] = RPMI 5 mM glucose + 10% dialyzed FBS, 0.19 µM
[29] = RPMI 5 mM glucose + 10% dialyzed FBS, 0.569 µM
[30] = RPMI 5 mM glucose + 10% dialyzed FBS, 1.71 µM
[31] = RPMI 5 mM glucose + 10% dialyzed FBS, 5.12 µM
[32] = RPMI 5 mM glucose + 10% dialyzed FBS, 15.4 µM
[33] = RPMI 5 mM glucose + 10% dialyzed FBS, 46.1 µM

Row | SMILES | cell viability [1] [%] | cell viability [2] [%] | cell viability [3] [%] | cell viability [4] [%] | cell viability [5] [%] | cell viability [6] [%] | cell viability [7] [%] | cell viability [8] [%] | cell viability [9] [%] | cell viability [10] [%] | cell viability [11] [%] | cell viability [12] [%] | cell viability [13] [%] | cell viability [14] [%] | cell viability [15] [%] | cell viability [16] [%] | cell viability [17] [%] | cell viability [18] [%] | cell viability [19] [%] | cell viability [20] [%] | cell viability [21] [%] | cell viability [22] [%] | cell viability [23] [%] | cell viability [24] [%] | cell viability [25] [%] | cell viability [26] [%] | cell viability [27] [%] | cell viability [28] [%] | cell viability [29] [%] | cell viability [30] [%] | cell viability [31] [%] | cell viability [32] [%] | cell viability [33] [%]
1 | O=[N+]([O-])c1ccc(Nc2ccccc2-c2ccccc2)c2nonc12 | 87.1 | 84.3 | 100 | 92.6 | 81.9 | 100 | 97 | 101 | 106 | 89 | 98.1 | 81.5 | 89.9 | 87.9 | 91.9 | 85.3 | 92.8 | 84.4 | 102 | 95.8 | 94.2 | 89.4 | 76.3 | 82.6 | 88 | 89.8 | 92.5 | 90.2 | 89.2 | 96.1 | 87.5 | 78.2 | 88.7
2 | O=[S+]([O-])(/N=C/c1c(O)ccc2ccccc12)c1cccs1 | – | – | – | – | – | – | – | – | – | – | – | 113 | 126 | 111 | 124 | 129 | 129 | 114 | 113 | 126 | 107 | 126 | – | – | – | – | – | – | – | – | – | – | –
3 | CCC[C@@H](C=O)NC(=O)[C@H](CC(C)C)NC(=O)[C@H](CC(C)C)NC(=O)OCc1ccccc1 | 113 | 121 | 121 | 138 | 138 | 139 | 138 | 75.4 | 19.2 | 7.83 | 5.86 | 101 | 110 | 119 | 135 | 126 | 127 | 127 | 35.3 | 13.9 | 8.52 | 7.79 | 115 | 130 | 124 | 131 | 143 | 143 | 132 | 93.1 | 32.4 | 9.45 | 7.3
4 | COc1nccc(-c2c(-c3ccc(F)cc3)ncn2C2CCC(O)CC2)n1 (stereo not given) | 120 | 123 | 121 | 123 | 132 | 121 | 111 | 122 | 112 | 119 | 51.3 | 107 | 109 | 120 | 115 | 111 | 112 | 103 | 100 | 98.4 | 100 | 35.9 | 122 | 114 | 126 | 109 | 116 | 118 | 105 | 118 | 111 | 107 | 74.3
5 | COc1ccc(CC2c3cc(OC)c(OC)cc3CC[N+]2(C)CCC(=O)OCCCCCOC(=O)CC[N+]2(C)CCc3cc(OC)c(OC)cc3C2Cc2ccc(OC)c(OC)c2)cc1OC (stereo not given) | 91 | 98.8 | 116 | 98.5 | 109 | 98.8 | 93.6 | 92.2 | 77.1 | 29.9 | 7.29 | 77.8 | 77.8 | 85.7 | 89.3 | 98.6 | 93 | 85.7 | 97.5 | 87.5 | 65 | 8.84 | 75.5 | 87 | 79.2 | 93.3 | 85.8 | 92 | 84.6 | 90 | 70 | 67.5 | 8.69
6 | NCCCC(O)(P(=O)(O)O)P(=O)(O)O.O.O.O.[Na+] | – | – | – | – | – | – | – | – | – | – | – | 102 | – | – | – | 117 | 117 | 102 | 106 | 102 | – | – | – | 116 | 107 | 123 | 115 | 110 | 111 | 113 | 114 | 87.8 | 61.7
7 | NC(=O)c1ccc(-c2nc(-c3ccc4c(c3)OCO4)c(-c3ccccn3)[nH]2)cc1 | 114 | 135 | 118 | 134 | 118 | 132 | 119 | 123 | 121 | 120 | 124 | 121 | 112 | 127 | 113 | 126 | 111 | 124 | 109 | 108 | 125 | 112 | 117 | 108 | 117 | 114 | 116 | 110 | 119 | 116 | 109 | 113 | 105
8 | CCc1cccc2c3c([nH]c12)C(CC)(CC(=O)O)OCC3 (stereo not given) | 98.5 | 98.5 | 122 | 105 | 100 | 113 | 88.4 | 97.8 | 97.4 | 100 | 84.5 | 95 | 92.7 | 95.9 | 102 | 85 | 90.4 | 98.1 | 93.2 | 93.6 | 84.7 | 87.2 | 100 | 94.3 | 95.1 | 87.3 | 82.4 | 77.7 | 89.3 | 87.5 | 92.9 | 82.9 | 97.1
